17 molecules from US9096593B2, “Compounds and methods for kinase modulation, and indications therefor” (Plexxikon Inc., priority 2009, dated 2015) can be followed below.

Assay [1] has as its target Fms kinase (Homo sapiens (Human), UniProt P07333). Kind of assay: Fms kinase biochemical activity assay (AlphaScreen, biotin-(E4Y)10 phosphorylation). Put shortly: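 Recombinant human Fms phosphorylating 30 nM biotin-(E4Y)10 with 100 μM ATP (1 ng/well enzyme) in Hepes pH 7.5 buffer with Mg2+/Mn2+, 5% DMSO, 20 min at 30 °C. Phosphotyrosine detected by AlphaScreen streptavidin donor/PY20 acceptor beads; IC50 from signal versus compound concentration.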

For assay [2], the target named is BCR-KIT/BaF3 cells (Homo sapiens, UniProt P10721). The assay can be described thus: BCR-KIT/BaF3 cell proliferation assay (ATPlite). Particulars: read-out: BCR/BaF3 (IC50 μM) Kit. The assay is classed as cell-based. The protocol: Compounds are assessed in a variety of cell based assays. For example BCR-FMS/BaF3, BCR-KIT/BaF3, M-NFS-60, M-07e, and BAC1.2F5 cell proliferation assays are used to assess inhibitory activity of Fms or Kit and MV-4-11 cell proliferation assay is used to assess inhibitory activity in Flt-3. Reagent and assay conditions are as follows: • BCR-FMS/BaF3 and BCR-KIT/BaF3 cells: • Maintained in RPMI containing 10% FBS, 1% PenStrep, 1% NEAA, and 1% L-Glutamine, supplemented with 1 mg/mL G418 and 5% WEHI-CM (or recombinant murine IL-3). • Confluent cells are split 1:50 to 1:100 every 3-4 days. • M-NFS-60 cells (ATCC #CRL-1838): • Maintained in RPMI containing 10% FBS, 1% Hepes, 1% NaPyruvate, and 0.45% Glucose, supplemented with 62 ng/mL murine M-CSF. • Confluent cells are split 1:20 every 3-4 days. • M-07e cells (DSMZ #ACC 104): • Maintained in IMDM containing 10% FBS, supplemented with either 200 ng/mL human SCF or […] SCF (R&D Systems 255-SC). • Confluent cells are split 1:5 to 1:10 every 3-4 days. • BAC1.2F5 cells: • Maintained in Alpha-MEM containing 10% Newborn Calf Serum (Invitrogen #26010-074) supplemented with 36 ng/mL murine M-CSF. • Confluent cells are split 1:4 every 3-4 days. • MV-4-11 cells: • Maintained in Iscove's Modified Dulbecco's Medium containing 10% FBS. • Confluent cells are split 1:4 every 3-4 days. On day 1, cells are counted, then centrifuged in a conical tube for 5 minutes at 1000 rpm. The supernatant is removed and cells are re-suspended as follows: • BCR-FMS/BaF3 and BCR-KIT/BaF3: resuspend in growth media+1 mg/mL G418 (without WEHI/IL-3) to 2×10^5 cells/mL. • M-NFS-60: resuspend in growth media +62 ng/mL murine M-CSF to 5×10^5 cells/mL. • M-07e: resuspend in growth media +200 ng/mL human SCF to 5×10^5 cells/mL. • BAC1.2F5: resuspend in growth media +36 ng/mL murine M-CSF to 1.4×10^5 cells/mL. • MV-4-11: resuspend in growth media +10% FBS to 5×10^5 cells/mL. The cells are plated (50 μL) in each well of a 96-well dish (Corning 3610) and incubated at 37° C. in 5% CO2 overnight, cells plated to a final concentration of cells as follows: • BCR-FMS/BaF3 and BCR-KIT/BaF3: 10,000 cells per well. • M-NFS-60: 25,000 cells per well. • M-07e: 25,000 cells per well. • BAC1.2F5: 7,000 cells per well. • MV-4-11: 25,000 cells per well. On day 2, compound at a maximum concentration of 5 mM is serially diluted 1:3 for a total of 8 point titration with DMSO as a control. A 1 μL aliquot of each dilution point is added to 249 μL growth media and 50 μL is added to a well containing cells, providing 10 μM compound for the maximum concentration point. The cells are incubated for 3 days at 37° C. in 5% CO2. On day 5, ATPlite 1 step Luminescence Assay System (Perkin Elmer #6016739) is brought to room temperature along with the cell cultures. ATPlite is added to each well as follows: • BCR-FMS/BaF3 and BCR-KIT/BaF3: 25 μL per well. • M-NFS-60: 25 μL per well. • M-07c: 40 μL per well. • BAC1.2F5: 50 μL per well. • MV-4-11: 40 μL per well. The cells are incubated at room temperature for 10 minutes, then luminescence is read on Safire reader. The measured luminescence correlates directly with cell number, such that the reading as a function of compound concentration is used to determine the IC50 value.

Where [3] appears, read: 100 μM ATP, read-out: Biochemical (IC50 μM) Fms.
Setting [4] is: read-out: Biochemical activity (IC50 μM) Fms.

Like-named read-outs stand apart in the source and are kept apart here.

Sequence of BCR-KIT/BaF3 cells (P10721 26-976 limits assumed, change not shown): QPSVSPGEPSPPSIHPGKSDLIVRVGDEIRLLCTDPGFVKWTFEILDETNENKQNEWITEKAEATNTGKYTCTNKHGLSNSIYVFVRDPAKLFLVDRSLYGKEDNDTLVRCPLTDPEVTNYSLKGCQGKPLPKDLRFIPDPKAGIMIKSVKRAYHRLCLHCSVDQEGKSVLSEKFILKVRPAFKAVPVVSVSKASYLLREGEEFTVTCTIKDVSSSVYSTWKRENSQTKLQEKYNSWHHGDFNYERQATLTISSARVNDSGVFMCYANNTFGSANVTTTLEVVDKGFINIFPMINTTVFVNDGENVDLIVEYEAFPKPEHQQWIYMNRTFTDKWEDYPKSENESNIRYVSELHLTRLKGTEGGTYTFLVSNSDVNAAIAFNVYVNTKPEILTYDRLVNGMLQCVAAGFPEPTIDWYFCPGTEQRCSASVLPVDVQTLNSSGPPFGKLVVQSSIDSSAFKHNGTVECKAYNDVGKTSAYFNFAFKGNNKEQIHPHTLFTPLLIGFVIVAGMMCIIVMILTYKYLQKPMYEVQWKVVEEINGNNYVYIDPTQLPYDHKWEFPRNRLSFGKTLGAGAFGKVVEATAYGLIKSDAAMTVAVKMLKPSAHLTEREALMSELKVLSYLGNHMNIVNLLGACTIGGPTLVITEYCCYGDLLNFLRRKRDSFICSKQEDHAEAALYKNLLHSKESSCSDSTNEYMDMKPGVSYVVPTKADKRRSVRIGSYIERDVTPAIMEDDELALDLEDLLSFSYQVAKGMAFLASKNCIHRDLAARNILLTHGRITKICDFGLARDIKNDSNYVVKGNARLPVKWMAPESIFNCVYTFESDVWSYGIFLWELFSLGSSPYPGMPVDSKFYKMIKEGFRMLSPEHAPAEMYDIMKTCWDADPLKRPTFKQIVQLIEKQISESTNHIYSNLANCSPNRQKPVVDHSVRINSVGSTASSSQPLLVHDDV
Sequence of Fms kinase (P07333 20-972): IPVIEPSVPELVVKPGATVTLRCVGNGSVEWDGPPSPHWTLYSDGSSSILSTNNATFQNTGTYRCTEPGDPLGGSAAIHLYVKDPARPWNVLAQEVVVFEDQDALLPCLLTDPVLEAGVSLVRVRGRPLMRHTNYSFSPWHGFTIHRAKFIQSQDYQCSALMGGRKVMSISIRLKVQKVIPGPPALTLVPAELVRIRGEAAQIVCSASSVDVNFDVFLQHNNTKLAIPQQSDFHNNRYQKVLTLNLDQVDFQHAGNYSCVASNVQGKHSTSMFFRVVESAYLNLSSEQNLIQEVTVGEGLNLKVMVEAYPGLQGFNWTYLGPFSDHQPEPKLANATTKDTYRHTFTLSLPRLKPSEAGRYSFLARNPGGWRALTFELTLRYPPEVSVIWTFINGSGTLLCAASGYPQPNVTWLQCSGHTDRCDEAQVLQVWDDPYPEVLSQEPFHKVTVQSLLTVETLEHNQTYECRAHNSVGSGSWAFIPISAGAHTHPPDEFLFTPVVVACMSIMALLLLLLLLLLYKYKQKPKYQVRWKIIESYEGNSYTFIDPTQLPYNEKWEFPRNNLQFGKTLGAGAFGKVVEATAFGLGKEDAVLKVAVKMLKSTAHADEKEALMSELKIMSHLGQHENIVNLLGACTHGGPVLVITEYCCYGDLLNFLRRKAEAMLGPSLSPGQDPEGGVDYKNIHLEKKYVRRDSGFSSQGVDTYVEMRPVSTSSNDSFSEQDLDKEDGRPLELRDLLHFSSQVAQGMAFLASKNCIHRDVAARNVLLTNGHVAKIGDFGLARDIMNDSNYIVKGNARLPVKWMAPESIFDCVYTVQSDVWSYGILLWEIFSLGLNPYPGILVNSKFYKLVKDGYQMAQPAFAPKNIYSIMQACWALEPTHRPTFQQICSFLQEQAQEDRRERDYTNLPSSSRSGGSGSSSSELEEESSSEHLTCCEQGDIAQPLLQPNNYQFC

For the molecule `COc1cnc2[nH]cc(Cc3ccc(NCc4ccc(Cl)cc4)nc3F)c2c1` [Compound P-2032, (4-Chloro-benzyl)-[6-fluoro-5-(5-methoxy-1H-pyrrolo[2,3-b]pyridin-3-ylmethyl)-pyridin-2-yl]-amine], the IC50 in assay [1] (setting [3]), in assay [1] (setting [4]) and in assay [2] was under 0.1 µM in each case. For the same molecule, the “Biochemical activity selectivity (Kit IC50/Fms IC50)” value in assay [1] was under 20.

For `COc1ccnc2[nH]cc(Cc3ccc(NCc4ccc(Cl)cc4)nc3F)c12` [Compound P-2037, (4-Chloro-benzyl)-[6-fluoro-5-(4-methoxy-1H-pyrrolo[2,3-b]pyridin-3-ylmethyl)-pyridin-2-yl]-amine], the IC50 in assay [1] (setting [3]) was under 0.1 µM; in assay [1] (setting [4]), under 0.1 µM; in assay [2] it was over 0.1 µM. The “Biochemical activity selectivity (Kit IC50/Fms IC50)” value in assay [1] is recorded as under 20.

`COc1ccc(CNc2ncc(Cc3c[nH]c4ncc(Cl)cc34)cn2)cn1` [Compound P-2038, [5-(5-Chloro-1H-pyrrolo[2,3-b]pyridin-3-ylmethyl)-pyrimidin-2-yl]-(6-methoxy-pyridin-3-ylmethyl)-amine]: the IC50 was under 0.1 µM in assay [1] (setting [3]), under 0.1 µM in assay [1] (setting [4]) and over 0.1 µM in assay [2]. In assay [1], the “Biochemical activity selectivity (Kit IC50/Fms IC50)” value is under 20.

Consider `COc1cnc2[nH]cc(Cc3ccc(NCc4cccnc4OC)nc3F)c2c1` [Compound P-2043, [6-Fluoro-5-(5-methoxy-1H-pyrrolo[2,3-b]pyridin-3-ylmethyl)-pyridin-2-yl]-(2-methoxy-pyridin-3-ylmethyl)-amine], for which the “Biochemical activity selectivity (Kit IC50/Fms IC50)” value in assay [1] is given as over 20. Besides, the IC50 in assay [2] was over 0.1 µM.

Regarding `COc1ncccc1CNc1ccc(Cc2c[nH]c3ncccc23)c(F)n1` [Compound P-2045, [6-Fluoro-5-(1H-pyrrolo[2,3-b]pyridin-3-ylmethyl)-pyridin-2-yl]-(2-methoxy-pyridin-3-ylmethyl)-amine], the “Biochemical activity selectivity (Kit IC50/Fms IC50)” value in assay [1] is over 20. The figures for the IC50 in assay [1] (setting [4]) and in assay [2] were under 0.1 µM and over 0.1 µM, respectively.

Turning to `COc1ncccc1CNc1ccc(Cc2c[nH]c3ncc(C)cc23)c(F)n1` [Compound P-2052, [6-Fluoro-5-(5-methyl-1H-pyrrolo[2,3-b]pyridin-3-ylmethyl)-pyridin-2-yl]-(2-methoxy-pyridin-3-ylmethyl)-amine], the “Biochemical activity selectivity (Kit IC50/Fms IC50)” value in assay [1] was over 20. The figures for the IC50 in assay [1] (setting [4]) and in assay [2] were under 0.1 µM and over 0.1 µM, respectively.

In the case of `COc1ccc(CNc2ncc(Cc3c[nH]c4ncc(C)cc34)cn2)cn1` [Compound P-2057, (6-Methoxy-pyridin-3-ylmethyl)-[5-(5-methyl-1H-pyrrolo[2,3-b]pyridin-3-ylmethyl)-pyrimidin-2-yl]-amine], the IC50 in assay [1] (setting [3]) is under 0.1 µM; in assay [1] (setting [4]), under 0.1 µM; in assay [2], over 0.1 µM. Besides, in assay [1], the “Biochemical activity selectivity (Kit IC50/Fms IC50)” value was under 20.

Take `COc1ncc(F)cc1CNc1ncc(Cc2c[nH]c3ncc(C)cc23)cn1` [Compound P-2061, (5-Fluoro-2-methoxy-pyridin-3-ylmethyl)-[5-(5-methyl-1H-pyrrolo[2,3-b]pyridin-3-ylmethyl)-pyrimidin-2-yl]-amine]: the “Biochemical activity selectivity (Kit IC50/Fms IC50)” value in assay [1] is given as over 20. Also, the IC50 in assay [1] (setting [4]) was under 0.1 µM; in assay [2], over 0.1 µM.

Turning to `Cc1cnc2[nH]cc(Cc3ccc(NCc4cnccc4C(F)(F)F)nc3F)c2c1` [Compound P-2062, [6-Fluoro-5-(5-methyl-1H-pyrrolo[2,3-b]pyridin-3-ylmethyl)-pyridin-2-yl]-(4-trifluoromethyl-pyridin-3-ylmethyl)-amine], the “Biochemical activity selectivity (Kit IC50/Fms IC50)” value in assay [1] is given as over 20. The IC50 in assay [1] (setting [4]) is under 0.1 µM; in assay [2], over 0.1 µM.

Take `FC(F)(F)c1ccncc1CNc1ccc(Cc2c[nH]c3ncc(Cl)cc23)cn1` [Compound P-2063, [5-(5-Chloro-1H-pyrrolo[2,3-b]pyridin-3-ylmethyl)-pyridin-2-yl]-(4-trifluoromethyl-pyridin-3-ylmethyl)-amine]: in assay [1], the “Biochemical activity selectivity (Kit IC50/Fms IC50)” value is given as under 20. In addition, the values for the IC50 in assay [1] (setting [4]) and in assay [2] were under 0.1 µM and over 0.1 µM, respectively.

As to `COc1ncc(F)cc1CNc1ncc(Cc2c[nH]c3ncc(Cl)cc23)cn1` [Compound P-2064, [5-(5-Chloro-1H-pyrrolo[2,3-b]pyridin-3-ylmethyl)-pyrimidin-2-yl]-(5-fluoro-2-methoxy-pyridin-3-ylmethyl)-amine], the “Biochemical activity selectivity (Kit IC50/Fms IC50)” value in assay [1] was over 20. For the same molecule, the IC50 in assay [1] (setting [4]) is under 0.1 µM; in assay [2] it was over 0.1 µM.

Regarding `Cc1cnc2[nH]cc(Cc3ccc(NCc4cnccc4C(F)(F)F)nc3)c2c1` [Compound P-2070, [5-(5-Methyl-1H-pyrrolo[2,3-b]pyridin-3-ylmethyl)-pyridin-2-yl]-(4-trifluoromethyl-pyridin-3-ylmethyl)-amine], the “Biochemical activity selectivity (Kit IC50/Fms IC50)” value in assay [1] was under 20. Further, the IC50 in assay [1] (setting [4]) was under 0.1 µM; in assay [2], over 0.1 µM.

On to `COc1cc(CNc2ccc(Cc3c[nH]c4ncc(C)cc34)c(F)n2)c(F)cn1` [Compound P-2071, (5-Fluoro-2-methoxy-pyridin-4-ylmethyl)-[6-fluoro-5-(5-methyl-1H-pyrrolo[2,3-b]pyridin-3-ylmethyl)-pyridin-2-yl]-amine], for which, in assay [1], the “Biochemical activity selectivity (Kit IC50/Fms IC50)” value is reported as over 20. Further, the results for the IC50 in assay [1] (setting [4]) and in assay [2] were under 0.1 µM and over 0.1 µM, respectively.

Turning to `COc1ncc(CNc2ncc(Cc3c[nH]c4ncc(C)cc34)cn2)cc1F` [Compound P-2073, (5-Fluoro-6-methoxy-pyridin-3-ylmethyl)-[5-(5-methyl-1H-pyrrolo[2,3-b]pyridin-3-ylmethyl)-pyrimidin-2-yl]-amine], the “Biochemical activity selectivity (Kit IC50/Fms IC50)” value in assay [1] is given as over 20. Also, the IC50 in assay [1] (setting [4]) is under 0.1 µM; in assay [2], over 0.1 µM.

In the case of `Cc1cnc2[nH]cc(Cc3cnc(NCc4ccc(Cl)nc4)nc3)c2c1` [Compound P-2078, (6-Chloro-pyridin-3-ylmethyl)-[5-(5-methyl-1H-pyrrolo[2,3-b]pyridin-3-ylmethyl)-pyrimidin-2-yl]-amine], the “Biochemical activity selectivity (Kit IC50/Fms IC50)” value in assay [1] is reported as over 20. For the same molecule, the figures for the IC50 in assay [1] (setting [4]) and in assay [2] were under 0.1 µM and over 0.1 µM, respectively.

In the case of `Cc1cnc2[nH]cc(Cc3cnc(NCc4cccc(C)n4)nc3)c2c1` [Compound P-2079, (6-Methyl-pyridin-2-ylmethyl)-[5-(5-methyl-1H-pyrrolo[2,3-b]pyridin-3-ylmethyl)-pyrimidin-2-yl]-amine], the “Biochemical activity selectivity (Kit IC50/Fms IC50)” value in assay [1] is on record as under 20. Also, the IC50 is under 0.1 µM in assay [1] (setting [4]) and over 0.1 µM in assay [2].

As to `Cc1cnc2[nH]cc(Cc3cnc(NCc4cccc(N5CCOCC5)n4)nc3)c2c1` [Compound P-2081, [5-(5-Methyl-1H-pyrrolo[2,3-b]pyridin-3-ylmethyl)-pyrimidin-2-yl]-(6-morpholin-4-yl-pyridin-2-ylmethyl)-amine], in assay [1], the “Biochemical activity selectivity (Kit IC50/Fms IC50)” value is under 20. Also, the IC50 in assay [1] (setting [4]) was under 0.1 µM; in assay [2], over 0.1 µM.
